Reference: patent publication US20230002357A1, “7-PYRIMIDINE-2-YL-OXY-INDAZOLE DERIVATIVES AND THEIR USE AS HERBICIDES” (SYNGENTA CROP PROTECTION AG, priority 2019, published 2023)

How the values were obtained:
Assay type in all cases: in vivo
Conditions in all cases: 250 g/ha, evaluated after 13 days
[1] = tested on: Echinochloa crus-galli (ECHCG); assay: Pre-emergence Test, glasshouse, ECHCG
Summary of the method: (§1)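 Spray: 250 g/ha (unless stated), acetone/water 50:50 + 0.5% Tween 20; pre-em 1 d, post-em 8 d after sowing. Glasshouse 24/16 °C, 14 h light, 65% RH, watered twice daily. Damage read at 13 d on 5-point scale.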

Setaria faberi (SETFA) [2] = assay: Pre-emergence Test, glasshouse, SETFA
Summary of the method: as §1

[3] = tested on: Amaranthus retoflexus (AMARE); assay: Post-emergence Test, glasshouse, AMARE
Summary of the method: as §1

IPOHE [4] = assay: Post-emergence Test, glasshouse, IPOHE
Summary of the method: as §1

ABUTH [5] = assay: Pre-emergence Test, glasshouse, ABUTH
Summary of the method: as §1

[6] = tested on: Amaranthus retoflexus (AMARE); assay: Pre-emergence Test, glasshouse, AMARE
Summary of the method: as §1

ABUTH [7] = assay: Post-emergence Test, glasshouse, ABUTH
Summary of the method: as §1

IPOHE [8] = assay: Pre-emergence Test, glasshouse, IPOHE
Summary of the method: as §1

Setaria faberi (SETFA) [9] = assay: Post-emergence Test, glasshouse, SETFA
Summary of the method: as §1

[10] = tested on: Echinochloa crus-galli (ECHCG); assay: Post-emergence Test, glasshouse, ECHCG
Summary of the method: as §1

| Compound | percentage damage caused to the plant, five-point scale, ECHCG [1] | percentage damage caused to the plant, five-point scale, SETFA (Setaria faberi (SETFA) [2]) | percentage damage caused to the plant, five-point scale, AMARE [3] | percentage damage caused to the plant, five-point scale, IPOHE (IPOHE [4]) | percentage damage caused to the plant, five-point scale, ABUTH (ABUTH [5]) | percentage damage caused to the plant, five-point scale, AMARE [6] | percentage damage caused to the plant, five-point scale, ABUTH (ABUTH [7]) | percentage damage caused to the plant, five-point scale, IPOHE (IPOHE [8]) | percentage damage caused to the plant, five-point scale, SETFA (Setaria faberi (SETFA) [9]) | percentage damage caused to the plant, five-point scale, ECHCG [10] |
| --- | --- | --- | --- | --- | --- | --- | --- | --- | --- | --- |
| N#Cc1ccc2c(Cl)nn(CCCC(F)(F)F)c2c1Oc1ncc(Cl)cn1 [Compound 1.041, 3-chloro-7-(5-chloropyrimidin-2-yl)oxy-1-(4,4,4-trifluorobutyl)indazole-6-carbonitrile] | 1 (1=0-20%) | 1 (1=0-20%) | 1 (1=0-20%) | 1 (1=0-20%) | 1 (1=0-20%) | 1 (1=0-20%) | 1 (1=0-20%) | 1 (1=0-20%) | 1 (1=0-20%) | 1 (1=0-20%) |
| FC(F)(F)CCn1ncc2cccc(Oc3ncc(Cl)cn3)c21 [Compound 1.042] | 5 (5=81-100%) | 5 (5=81-100%) | 4 (4=61-80%) | 2 (2=21-40%) | 4 (4=61-80%) | 5 (5=81-100%) | 4 (4=61-80%) | 1 (1=0-20%) | 4 (4=61-80%) | 4 (4=61-80%) |
| Cc1ccc2c(Cl)nn(CCCC(F)(F)F)c2c1Oc1ncc(Cl)cn1 [Compound 1.043, 3-chloro-7-(5-chloropyrimidin-2-yl)oxy-6-methyl-1-(4,4,4-trifluorobutyl)indazole] | 3 (3=41-60%) | 4 (4=61-80%) | 4 (4=61-80%) | 4 (4=61-80%) | 1 (1=0-20%) | 5 (5=81-100%) | 3 (3=41-60%) | 1 (1=0-20%) | 3 (3=41-60%) | 3 (3=41-60%) |
| Cc1ccc2cnn(CCCC(F)(F)F)c2c1Oc1ncc(Cl)cn1 [Compound 1.044] | 3 (3=41-60%) | 3 (3=41-60%) | 1 (1=0-20%) | 1 (1=0-20%) | 1 (1=0-20%) | 2 (2=21-40%) | 1 (1=0-20%) | 1 (1=0-20%) | 1 (1=0-20%) | 1 (1=0-20%) |
| N#Cc1ccc2cnn(CCCC(F)(F)F)c2c1Oc1ncc(Cl)cn1 [Compound 1.046] | 1 (1=0-20%) | 1 (1=0-20%) | 2 (2=21-40%) | 1 (1=0-20%) | 2 (2=21-40%) | 1 (1=0-20%) | 2 (2=21-40%) | 1 (1=0-20%) | 1 (1=0-20%) | 1 (1=0-20%) |
| Fc1cnc(Oc2cccc3c(Cl)nn(CCCC(F)(F)F)c23)nc1 [Compound 1.047] | 5 (5=81-100%) | 5 (5=81-100%) | 5 (5=81-100%) | 5 (5=81-100%) | 5 (5=81-100%) | 5 (5=81-100%) | 5 (5=81-100%) | 3 (3=41-60%) | 4 (4=61-80%) | 5 (5=81-100%) |
| COc1cnc(Oc2cccc3c(Cl)nn(CCCC(F)(F)F)c23)nc1 [Compound 1.048] | 4 (4=61-80%) | 5 (5=81-100%) | 5 (5=81-100%) | 4 (4=61-80%) | 2 (2=21-40%) | 4 (4=61-80%) | 4 (4=61-80%) | 1 (1=0-20%) | 3 (3=41-60%) | 3 (3=41-60%) |
| Cc1cnc(Oc2cccc3c(Cl)nn(CCCC(F)(F)F)c23)nc1 [Compound 1.049] | 5 (5=81-100%) | 5 (5=81-100%) | 4 (4=61-80%) | 3 (3=41-60%) | 3 (3=41-60%) | 5 (5=81-100%) | 5 (5=81-100%) | 1 (1=0-20%) | 4 (4=61-80%) | 5 (5=81-100%) |
| FC(F)(F)CCCn1nnc2cc(Cl)cc(Oc3ncc(Cl)cn3)c21 [Compound 1.050] | 1 (1=0-20%) | 1 (1=0-20%) | 5 (5=81-100%) | 3 (3=41-60%) | 1 (1=0-20%) | 1 (1=0-20%) | 2 (2=21-40%) | 1 (1=0-20%) | 1 (1=0-20%) | 1 (1=0-20%) |
| FC(F)OCCn1nc(Cl)c2cccc(Oc3ncc(Cl)cn3)c21 [Compound 1.051] | 4 (4=61-80%) | 5 (5=81-100%) | 5 (5=81-100%) | 3 (3=41-60%) | 3 (3=41-60%) | 5 (5=81-100%) | 4 (4=61-80%) | 2 (2=21-40%) | 4 (4=61-80%) | 4 (4=61-80%) |
